The values below come from ChEMBL document CHEMBL4673231, “Novel isoniazid embedded triazole derivatives: Synthesis, antitubercular and antimicrobial activity evaluation” (Bioorg Med Chem Lett, 2020).

The test system of one data set is Escherichia coli. The data set is described as follows: Antibacterial activity against Escherichia coli assessed as diameter of inhibition zone at 1 mg/ml incubated for 24 hrs by agar well diffusion assay. It is filed as functional. The note with it: for zone of inhibition at 1000 µg/mL: read-out: DIZ. (In general: Agar diffusion results depend on both activity and mobility in agar.)

Data set [1] relates to Klebsiella aerogenes. The data set is described as follows: Antibacterial activity against Enterobacter aerogenes ATCC 13048 by CLSI method. It counts as functional.
The next data set relates to Aspergillus niger. Put plainly: Antifungal activity against Aspergillus niger assessed as diameter of inhibition zone at 1 mg/ml incubated for 24 hrs by agar well diffusion assay. It counts as functional. The note with it: read-out: DIZ.
Data set [2] concerns Mycobacterium tuberculosis. The data set is described as follows: Antimycobacterial activity against Mycobacterium tuberculosis H37Rv assessed as reduction in microbial growth incubated for 7 days by alamar blue assay. It counts as functional. The note with it: 168 h, time 7 day. For orientation: Alamar Blue is a resazurin reagent that responds to reducing activity.
The subject of data set [3] is Salmonella typhi. Put plainly: Antibacterial activity against Salmonella typhi assessed as diameter of inhibition zone at 1 mg/ml incubated for 24 hrs by agar well diffusion assay. It is filed as functional, Salmonella enterica subsp. enterica serovar Typhi. The note with it: Salmonella enterica, read-out: DIZ.
Data set [4] concerns Staphylococcus aureus. The data set is described as follows: Antibacterial activity against Staphylococcus aureus ATCC 6538 by CLSI method. It counts as functional.
Data set [5] relates to Salmonella typhi. Put plainly: Antibacterial activity against Salmonella typhi ATCC 9207 by CLSI method. It is filed as functional, Salmonella enterica subsp. enterica serovar Typhi. The note with it: Salmonella enterica.
In data set [6] the test system is Klebsiella aerogenes. The data set is described as follows: Antibacterial activity against Enterobacter aerogenes assessed as diameter of inhibition zone at 1 mg/ml incubated for 24 hrs by agar well diffusion assay. It counts as functional. The note with it: read-out: DIZ.
The subject of data set [7] is Salmonella enterica subsp. enterica serovar Abony. The data set is described as follows: Antibacterial activity against Salmonella enterica subsp. enterica serovar Abony assessed as diameter of inhibition zone at 1 mg/ml incubated for 24 hrs by agar well diffusion assay. The note with it: for zone of inhibition at 1000 µg/mL: read-out: DIZ. It counts as functional.

Another data set deals with Bacillus cereus. Put plainly: Antibacterial activity against Bacillus cereus assessed as diameter of inhibition zone at 1 mg/ml incubated for 24 hrs by agar well diffusion assay. The note with it: read-out: DIZ. It is filed as functional.
In another data set the test system is Bacillus subtilis. The data set is described as follows: Antibacterial activity against Bacillus subtilis assessed as diameter of inhibition zone at 1 mg/ml incubated for 24 hrs by agar well diffusion assay. It counts as functional. The note with it: read-out: DIZ.
Data set [8] deals with Staphylococcus aureus. Put plainly: Antibacterial activity against Staphylococcus aureus assessed as diameter of inhibition zone at 1 mg/ml incubated for 24 hrs by agar well diffusion assay. It counts as functional. The note with it: read-out: DIZ.
The next data set has as its system Shigella boydii. The data set is described as follows: Antibacterial activity against Shigella boydii assessed as diameter of inhibition zone at 1 mg/ml incubated for 24 hrs by agar well diffusion assay. The note with it: for zone of inhibition at 1000 µg/mL: read-out: DIZ. It is filed as functional.
The subject of a further data set is Pseudomonas aeruginosa. Put plainly: Antibacterial activity against Pseudomonas aeruginosa assessed as diameter of inhibition zone at 1 mg/ml incubated for 24 hrs by agar well diffusion assay. The note with it: read-out: DIZ. It is filed as functional.
For another data set, the system named is Saccharomyces cerevisiae. The data set is described as follows: Antifungal activity against Saccharomyces cerevisiae assessed as diameter of inhibition zone at 1 mg/ml incubated for 24 hrs by agar well diffusion assay. It is filed as functional. The note with it: for zone of inhibition at 1000 µg/mL: read-out: DIZ.
A short description of data set [9]: Cytotoxicity against mouse RAW264.7 cells assessed as reduction in cell viability at 25 ug/ml incubated for 48 hrs by MTT assay. It is filed as cell-based. The note with it: at 25 µg/mL, read-out: INH. A general note: Tetrazolium dyes change colour on reduction, which living cells bring about.

≈ marks a conversion by molar mass, not a printed value. Calls of active or inactive are those of the source.

On to `COc1ccc(-n2cc(COc3ccc([N+](=O)[O-])cc3/C=N/NC(=O)c3ccncc3)nn2)cc1`, for which the zone of inhibition at 1000 µg/mL in the data set on Escherichia coli was found to be 12 mm; with Aspergillus niger, 11 mm; with Salmonella typhi [3], 12 mm; with Klebsiella aerogenes [6], 14 mm; in [7], 13 mm; in the data set on Bacillus cereus it was 12 mm. The zone of inhibition at 1000 µg/mL with Bacillus subtilis was 6 mm; in the data set on Staphylococcus aureus [8], 10 mm; in the data set with Shigella boydii it was 14 mm; in the data set on Pseudomonas aeruginosa, 12 mm. For the same molecule, the MIC – broadly, the smallest concentration in the dilution series that meets the test's criterion for growth inhibition – against Klebsiella aerogenes [1] is 150 µg/mL (≈ 317 µM); in [2] it was above 25 µg/mL; in the data set on Staphylococcus aureus [4], 180 µg/mL (≈ 380 µM); against Salmonella typhi [5], 340 µg/mL (≈ 718 µM).

For `COc1ccccc1-n1cc(COc2ccc([N+](=O)[O-])cc2/C=N/NC(=O)c2ccncc2)nn1`, the zone of inhibition at 1000 µg/mL with Escherichia coli came to 11 mm; with Aspergillus niger, 10 mm; with Salmonella typhi [3] it was 11 mm; with Klebsiella aerogenes [6], 12 mm; in [7], 8 mm; in the data set on Saccharomyces cerevisiae it was 10 mm. Also, the zone of inhibition at 1000 µg/mL came out at 12 mm in the data set on Bacillus cereus; 12 mm with Bacillus subtilis; 12 mm in the data set with Staphylococcus aureus [8]; 13 mm in the data set with Shigella boydii; 8 mm with Pseudomonas aeruginosa. Further, the MIC against Klebsiella aerogenes [1] is 370 µg/mL (≈ 781 µM); in data set [2], above 25 µg/mL; in the data set with Staphylococcus aureus [4], 450 µg/mL (≈ 950 µM); in the data set with Salmonella typhi [5] it was 230 µg/mL (≈ 486 µM).

As to `CN(C)[C@@H]1C(O)=C(C(N)=O)C(=O)[C@@]2(O)C(O)=C3C(=O)c4c(O)cccc4[C@@](C)(O)[C@H]3C[C@@H]12` [TETRACYCLINE], the zone of inhibition at 1000 µg/mL is 29 mm in the data set with Escherichia coli; 28 mm in the data set with Salmonella typhi [3]; 24 mm with Klebsiella aerogenes [6]; 27 mm in [7]; 32 mm in the data set on Bacillus cereus; 18 mm in the data set with Bacillus subtilis. Also, the figures for the zone of inhibition at 1000 µg/mL in the data set on Staphylococcus aureus [8], with Shigella boydii and with Pseudomonas aeruginosa were 22 mm, 29 mm and 28 mm, respectively. The figures for the MIC in the data set with Klebsiella aerogenes [1], against Staphylococcus aureus [4] and in the data set on Salmonella typhi [5] were 15 µg/mL (≈ 33.8 µM), 20 µg/mL (≈ 45 µM) and 20 µg/mL (≈ 45 µM), respectively.

For the molecule `O=C(N/N=C/c1cc([N+](=O)[O-])ccc1OCc1cn(-c2cccc(Cl)c2)nn1)c1ccncc1`, the zone of inhibition at 1000 µg/mL with Escherichia coli is 10 mm; in the data set with Aspergillus niger, 9 mm; in the data set with Klebsiella aerogenes [6] it was 13 mm; in data set [7], 10 mm; with Saccharomyces cerevisiae, 10 mm; in the data set with Bacillus cereus it was 10 mm. The zone of inhibition at 1000 µg/mL is 11 mm in the data set with Bacillus subtilis, 15 mm in the data set with Staphylococcus aureus [8], 12 mm in the data set on Shigella boydii and 8 mm with Pseudomonas aeruginosa. Also, the MIC was 260 µg/mL (≈ 544 µM) with Klebsiella aerogenes [1], 12.5 µg/mL in [2], 220 µg/mL (≈ 460 µM) against Staphylococcus aureus [4] and 140 µg/mL (≈ 293 µM) with Salmonella typhi [5]. For the same molecule, in [9], the cytotoxicity at 48 h, 25 ug/ml amounted to 20.1%.

`Cc1cccc(-n2cc(COc3ccc([N+](=O)[O-])cc3/C=N/NC(=O)c3ccncc3)nn2)c1`: the “diameter of the inhibition zone (DIZ)” value (in the data set with Escherichia coli; in [7]; in the data set on Saccharomyces cerevisiae; with Shigella boydii) was “inactive” in each case. The zone of inhibition at 1000 µg/mL in the data set with Aspergillus niger came to 8 mm; with Salmonella typhi [3], 10 mm; in the data set on Klebsiella aerogenes [6], 8 mm; with Bacillus cereus, 13 mm; with Bacillus subtilis, 10 mm; in the data set with Staphylococcus aureus [8], 13 mm. In the data set with Pseudomonas aeruginosa, the zone of inhibition at 1000 µg/mL was determined as 12 mm. Also, the MIC in data set [2] worked out at 12.5 µg/mL. The cytotoxicity at 48 h, 25 ug/ml in data set [9] is 23.2%.
